From the supplement of paper PMC11061612

Legend:
[1] = compound: CC(=O)c1c(C)c2cnc(Nc3ccc(N4CCNCC4)cn3)nc2n(C2CCCC2)c1=O [Palbociclib]; conditions: max 10 µM
Outline: (§1)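 Following 24 hours at 37°C and 5% CO2, cancer cell lines in 1536-well plates with 7.5 μl DMEM/F12 or RPMI and 10% FBS were dosed for 72 hours, final DMSO typically being 0.2%. CellTiter-Glo 2.0 luminescence, scaled between blank-well and DMSO-well means, gave the viability readout. Dose responses were fitted to a two-parameter logistic curve with a non-linear mixed effects model, and the single-agent IC50 was derived from this fit.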

[2] = compound: CC(C)n1c(=O)n(C)c2cnc3cc(F)c(-c4ccc(OCCCN5CCCCC5)nc4)cc3c21 [AZD1390]; conditions: max 0.3 µM
Outline: as §1

[3] = compound: C1CC(C1)(C(=O)[O-])C(=O)[O-].N.N.[Pt+2] [Carboplatin]; conditions: max 10 µM
Outline: as §1

[4] = compound: C[C@@H](Nc1cc(F)cc(F)c1)c1cc(C(=O)N(C)C)cc2c(=O)cc(N3CCOCC3)oc12 [AZD8186]; conditions: max 10 µM
Outline: as §1

[5] = compound: Cc1cc2ncnn2cc1Nc1ncc2c(n1)n(C1CCOCC1)c(=O)n2C [AZD7648]; conditions: max 10 µM
Outline: as §1

[6] = compound: COc1cc(Nc2ncc3c(n2)-c2ccc(Cl)cc2C(c2c(F)cccc2OC)=NC3)ccc1C(=O)O [Alisertib]; conditions: max 10 µM
Outline: as §1

[7] = compound: CC1(C)CCC(CN2CCN(c3ccc(C(=O)NS(=O)(=O)c4ccc(NCC5CCOCC5)c([N+](=O)[O-])c4)c(Oc4cnc5[nH]ccc5c4)c3)CC2)=C(c2ccc(Cl)cc2)C1 [Venetoclax]; conditions: max 1 µM
Outline: as §1

[8] = compound: CC1=C(C(=CC=C1)Cl)NC(=O)C2=CN=C(S2)NC3=CC(=NC(=N3)C)N4CCN(CC4)CCO [Dasatinib]; conditions: max 2 µM
Outline: as §1

[9] = compound: C=CCn1c(=O)c2cnc(Nc3ccc(N4CCN(C)CC4)cc3)nc2n1-c1cccc(C(C)(C)O)n1 [AZD1775]; conditions: max 3 µM
Outline: as §1

[10] = compound: C[C@@H](Oc1cc(-c2cnn(C3CCNCC3)c2)cnc1N)c1c(Cl)ccc(F)c1Cl [Crizotinib]; conditions: max 10 µM
Outline: as §1

[11] = compound: O=c1[nH]cc(F)c(=O)[nH]1 [5-Fluorouracil]; conditions: max 20 µM
Outline: as §1

[12] = compound: CC(=O)Nc1cccc(-n2c(=O)n(C3CC3)c(=O)c3c(Nc4ccc(I)cc4F)n(C)c(=O)c(C)c32)c1 [Trametinib]; conditions: max 1 µM
Outline: as §1

[13] = compound: CN(C)CCCOc1ccc(-c2ccc3ncc4c(c3c2)n(C2CCOCC2)c(=O)n4C)cn1 [AZD0156]; conditions: max 3 µM
Outline: as §1

[14] = compound: CCc1c2c(nc3ccc(O)cc13)-c1cc3c(c(=O)n1C2)COC(=O)[C@]3(O)CC [SN-38]; conditions: max 0.3 µM
Outline: as §1

[15] = compound: NC1(c2ccc(-c3nc4ccn5c(=O)[nH]nc5c4cc3-c3ccccc3)cc2)CCC1 [MK-2206]; conditions: max 10 µM
Outline: as §1

[16] = compound: CCN(CCO)CCCOc1ccc2c(Nc3cc(CC(=O)Nc4cccc(F)c4)[nH]n3)ncnc2c1 [AZD2811]; conditions: max 1 µM
Outline: as §1

[17] = compound: C[C@@H](c1ccc2nccn2c1)n1nnc2ncc(-c3cnn(C)c3)nc21 [Savolitinib]; conditions: max 1 µM
Outline: as §1

[18] = compound: Cc1c2c(nn1C)CSCc1cc(n(C)n1)CSc1cc(c3ccccc3c1)OCCCc1c(C(=O)O)n(C)c3c-2c(Cl)ccc13 [AZD5991]; conditions: max 1 µM
Outline: as §1

[19] = compound: O=C(Nc1ccc2[nH]nc(-c3ccncc3)c2c1)[C@@H]1CCN(CC(=O)N2CCN(c3ccc(-c4ncccn4)cc3)CC2)C1; conditions: max 5 µM
Outline: as §1

[20] = compound: COc1cc2ncnc(Nc3ccc(F)c(Cl)c3)c2cc1OCCCN1CCOCC1 [Gefitinib]; conditions: max 10 µM
Outline: as §1

[21] = compound: COc1cccc(OCCCN)c1-c1cc(Nc2cnc(C#N)cn2)n[nH]1 [Prexasertib]; conditions: max 1 µM
Outline: as §1

[22] = compound: COc1cc([C@@H]2c3cc4c(cc3[C@@H](O[C@@H]3O[C@@H]5CO[C@@H](C)O[C@H]5[C@H](O)[C@H]3O)[C@H]3COC(=O)[C@H]23)OCO4)cc(OC)c1O [Etoposide]; conditions: max 10 µM
Outline: as §1

[23] = compound: CC(=O)O[C@H]1C(=O)[C@@]2(C)[C@H]([C@H](OC(=O)c3ccccc3)[C@]3(O)C[C@H](OC(=O)[C@H](O)[C@@H](NC(=O)c4ccccc4)c4ccccc4)C(C)=C1C3(C)C)[C@]1(OC(C)=O)CO[C@@H]1C[C@@H]2O [Paclitaxel]; conditions: max 3 µM
Outline: as §1

[24] = compound: COc1nnc2ccc(N3CCC(c4ccc(OCCN5CCN(C)C(=O)[C@H]5C)cc4)CC3)nn12 [AZD5153]; conditions: max 1 µM
Outline: as §1

[25] = compound: O=C(c1cc(Cc2n[nH]c(=O)c3ccccc23)ccc1F)N1CCN(C(=O)C2CC2)CC1 [Olaparib]; conditions: max 10 µM
Outline: as §1

[26] = compound: CS(=O)(=O)CCNCc1ccc(-c2ccc3ncnc(Nc4ccc(OCc5cccc(F)c5)c(Cl)c4)c3c2)o1 [Lapatinib]; conditions: max 10 µM
Outline: as §1

[27] = compound: Cn1cnc2c(F)c(Nc3ccc(Br)cc3Cl)c(C(=O)NOCCO)cc21 [Selumetinib]; conditions: max 10 µM
Outline: as §1

[28] = compound: C[C@@H]1COCCN1C2=NC(=NC(=C2)C3(CC3)[S@](=N)(=O)C)C4=C5C=CNC5=NC=C4 [AZD6738]; conditions: max 10 µM
Outline: as §1

[29] = compound: Cc1nc(-c2cn3c(n2)-c2ccc(-c4cnn(C(C)(C)C(N)=O)c4)cc2OCC3)n(C(C)C)n1 [Taselisib]; conditions: max 10 µM
Outline: as §1

[30] = compound: C1CN(CCC1(C(=O)N[C@@H](CCO)C2=CC=C(C=C2)Cl)N)C3=NC=NC4=C3C=CN4 [AZD5363]; conditions: max 10 µM
Outline: as §1

[31] = compound: CN(CC[C@H](CSC1=CC=CC=C1)NC2=C(C=C(C=C2)S(=O)(=O)NC(=O)C3=CC=C(C=C3)N4CCC(CC4)[C@H](C5=CC=CC=C5C6=CC=C(C=C6)Cl)O)S(=O)(=O)C(F)(F)F)CCO [AZD4320]; conditions: max 1 µM
Outline: as §1

[32] = compound: N#Cc1cnc(Nc2cc(NC[C@H]3CNCCO3)c(C(F)(F)F)cn2)cn1 [SRA737]; conditions: max 10 µM
Outline: as §1

[33] = compound: Nc1ccn([C@@H]2O[C@H](CO)[C@@H](O)C2(F)F)c(=O)n1 [Gemcitabine]; conditions: max 0.3 µM
Outline: as §1

[34] = compound: COc1cccc2c1C(=O)c1c(O)c3c(c(O)c1C2=O)C[C@@](O)(C(=O)CO)C[C@@H]3O[C@H]1C[C@H](N)[C@H](O)[C@H](C)O1 [Doxorubicin]; conditions: max 1 µM
Outline: as §1

[35] = compound: CC1=CN2[C@@H](C1)C=NC3=CC(=C(C=C3C2=O)OC)OCCCCCOC4=C(C=C5C(=C4)N=C[C@@H]6CC(=CN6C5=O)C)OC [SG3199]; conditions: max 0.001 µM
Outline: as §1

Row | Cell Line | IC50, cell viability 72 h [1] [µM] | IC50, cell viability 72 h [2] [µM] | IC50, cell viability 72 h [3] [µM] | IC50, cell viability 72 h [4] [µM] | IC50, cell viability 72 h [5] [µM] | IC50, cell viability 72 h [6] [µM] | IC50, cell viability 72 h [7] [µM] | IC50, cell viability 72 h [8] [µM] | IC50, cell viability 72 h [9] [µM] | IC50, cell viability 72 h [10] [µM] | IC50, cell viability 72 h [11] [µM] | IC50, cell viability 72 h [12] [µM] | IC50, cell viability 72 h [13] [µM] | IC50, cell viability 72 h [14] [µM] | IC50, cell viability 72 h [15] [µM] | IC50, cell viability 72 h [16] [µM] | IC50, cell viability 72 h [17] [µM] | IC50, cell viability 72 h [18] [µM] | IC50, cell viability 72 h [19] [µM] | IC50, cell viability 72 h [20] [µM] | IC50, cell viability 72 h [21] [µM] | IC50, cell viability 72 h [22] [µM] | IC50, cell viability 72 h [23] [µM] | IC50, cell viability 72 h [24] [µM] | IC50, cell viability 72 h [25] [µM] | IC50, cell viability 72 h [26] [µM] | IC50, cell viability 72 h [27] [µM] | IC50, cell viability 72 h [28] [µM] | IC50, cell viability 72 h [29] [µM] | IC50, cell viability 72 h [30] [µM] | IC50, cell viability 72 h [31] [µM] | IC50, cell viability 72 h [32] [µM] | IC50, cell viability 72 h [33] [µM] | IC50, cell viability 72 h [34] [µM] | IC50, cell viability 72 h [35] [µM]
1 | K5 (Thyroid Gland Carcinoma) | > 10 | > 0.3 | > 10 | > 10 | > 10 | 0.638 | > 1 | 0.604 | > 3 | 9.78 | > 20 | 0.0143 | > 3 | 0.15 | > 10 | > 1 | > 1 | > 1 | 3.88 | > 10 | 0.251 | > 10 | 0.0561 | 0.243 | > 10 | > 10 | 2.19 | > 10 | 0.558 | > 10 | > 1 | > 10 | > 0.3 | 0.266 | > 0.001
2 | LU-139 (Small Cell Lung Carcinoma) | > 10 | > 0.3 | > 10 | > 10 | > 10 | 5.74 | > 1 | > 2 | 1.21 | 9.53 | > 20 | > 1 | > 3 | 0.0392 | > 10 | > 1 | > 1 | > 1 | > 5 | > 10 | 0.413 | 2.43 | 0.124 | 0.103 | > 10 | > 10 | > 10 | > 10 | > 10 | > 10 | 0.0474 | > 10 | 0.0295 | 0.513 | > 0.001
3 | LoVo (Colorectal Carcinoma) | 7.65 | > 0.3 | > 10 | 0.952 | > 10 | > 10 | > 1 | > 2 | 0.192 | > 10 | > 20 | 0.156 | > 3 | 0.108 | 5.23 | > 1 | > 1 | > 1 | 1.68 | > 10 | 0.0244 | > 10 | 0.0703 | > 1 | > 10 | > 10 | 5.81 | 1.17 | 5.55 | 7.27 | > 1 | 8.63 | 0.138 | > 1 | > 0.001
4 | Mewo (Melanoma) | > 10 | > 0.3 | > 10 | > 10 | > 10 | > 10 | > 1 | > 2 | 1.42 | > 10 | > 20 | 0.569 | > 3 | > 0.3 | > 10 | > 1 | > 1 | > 1 | 3.57 | > 10 | 0.413 | > 10 | 0.653 | > 1 | > 10 | > 10 | > 10 | > 10 | > 10 | > 10 | > 1 | > 10 | > 0.3 | > 1 | > 0.001
5 | NB14 (Neuroblastoma) | 2.36 | > 0.3 | > 10 | > 10 | > 10 | 0.0251 | 0.726 | > 2 | 0.293 | 1.28 | > 20 | 0.57 | > 3 | 0.00504 | 9.15 | 0.0249 | > 1 | 0.566 | > 5 | > 10 | 0.00403 | 0.849 | < 0.003 | 0.451 | > 10 | > 10 | > 10 | 1.35 | > 10 | > 10 | 0.126 | 0.677 | 0.128 | 0.174 | > 0.001
